Experimental findings from PubChem BioAssay (NCI) are described below.

Assay in all cases: NCI-60 cell line screen, 48 h
Assay [1] deals with HT29 colon.
The test system of assay [2] is TK-10 renal.
Assay [3] deals with A549 NSCLC.
For assay [4], the system named is OVCAR-3 ovarian.
Assay [5] has as its system LOX IMVI melanoma.
Assay [6] concerns ACHN renal.
Assay [7] concerns NCI-H522 lung.
For assay [8], the system named is SK-MEL-2 melanoma.
The subject of assay [9] is MDA-MB-435.
The subject of assay [10] is SW-620 colon.

The structures appear in SMILES notation. Where “and” joins values, the source holds several entries; their conditions need not be identical. Equal values may be shown once.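 All cell lines were grown in 96-well plates and treated with compound for 48 hours. At the GI50, growth is halved. TGI: concentration producing complete growth inhibition.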 Where only a bound is given, the exact number is not on record here.

For the molecule `COc1ccc(/C=C2/SC(Nc3nc(-c4nc(NC5=NC(=O)/C(=C\c6ccc(OC)cc6)S5)sc4C)c(C)s3)=NC2=O)cc1`, the GI50 was 1.99 µM in [1]; 0.172 µM in [2]; 1.14 µM in [3]; 0.188 µM in assay [4]; 0.935 µM in assay [5]; 0.838 µM in assay [6]. The GI50 in [7] was 2.14 µM; in assay [8], 15.2 µM; in assay [9], 0.143 µM; in [10], 1.31 µM. The TGI in [1] is over 50 µM; in [2], 0.77 µM; in assay [3], 17.2 µM; in assay [4], 3.25 µM; in [5], 9.27 µM; in assay [6], 9.74 µM. The TGI in [7] was over 25.9 µM; in [8], over 50 µM; in assay [9], 0.633 µM; in assay [10] it was over 50 µM.
In the case of `CCCCCCCCCCCCOC1C(CNC(=O)C2OC3OC(C)(C)OC3C2NC(=O)CN2CCN(c3ccc(OC)cc3)CC2)OC2OC(C)(C)OC21` (stereo not given), the GI50 is 2.12 µM in [1]; 3.96 µM in [2]; 3.18 µM in assay [3]; 4.01 µM in assay [4]; 3.71 µM in assay [5]; 3.59 µM in assay [6]. The GI50 was 4.92 µM in [7], 11.7 µM in assay [8], 5.12 µM in assay [9] and 3.75 µM in assay [10]. Besides, the TGI in [1] is 5.12 µM; in assay [2], 13.4 µM; in assay [3], 18.2 µM; in assay [4], 14.5 µM; in assay [5], 12.3 µM; in assay [6] it was 11.2 µM. In addition, the TGI turned out to be 17.4 µM in [7], 23.9 µM in assay [8], 17.7 µM in [9] and 28.3 µM in assay [10].
With `CCNC(=O)Oc1ccc(/C(=C(/C)Cc2ccc(OC)cc2)c2ccc(OCCN(CC)CC)cc2)cc1`, the GI50 was 2.02 µM in assay [1]; 2.03 µM in assay [2]; 1.87 µM in assay [3]; 1.69 µM in [4]; 1.66 µM in assay [5]; 1.69 µM in assay [6]. Further, the GI50 in assay [7] is 2.16 µM; in assay [8], 1.85 µM; in assay [9], 1.67 µM; in [10] it was 1.81 µM. The TGI in assay [1] came out at 3.96 µM; in [2], 6.05 µM; in [3] it was 3.62 µM; in [4], 3.34 µM; in assay [5] it was 3.22 µM; in [6], 3.18 µM. The TGI was found to be 4.17 µM in assay [7], 3.62 µM in assay [8], 3.18 µM in [9] and 3.46 µM in assay [10].
Regarding `O=C(CCN1CCCCC1)N1CCc2c([nH]c3ccccc23)C1c1cccnc1` (stereo not given), the TGI in assay [1] was 75.4 µM; in [2], over 100 µM; in assay [3], over 100 µM; in assay [4], over 100 µM; in assay [5], over 100 µM; in assay [6], over 100 µM. Moreover, the TGI in [7] is 79.7 µM; in assay [8], 36.9 µM; in assay [9] it was 75.1 µM; in [10] it was over 100 µM.
Regarding `C/C(=C(\c1ccc(OCCN2CCCCCC2)cc1)c1ccc(OC(=O)c2ccccc2)cc1)c1ccc(Cl)cc1`, the GI50 was 1.28 µM in assay [1]; 5.14 µM in assay [2]; 4.16 µM in assay [3]; 4.06 µM in assay [4]; 2.43 µM in assay [5]; 4.87 µM in [6]. Moreover, the GI50 was 5.27 µM in [7], 5.32 µM in assay [8], 4.24 µM in assay [9] and 4.04 µM in [10]. Further, the TGI is 4.57 µM in [1]; 10.8 µM in assay [2]; 10.9 µM in [3]; 8.49 µM in [4]; 6.81 µM in [5]; 9.46 µM in [6]. In addition, the TGI in assay [7] was 10.6 µM; in assay [8], 10.5 µM; in [9], 8.87 µM; in [10] it was 9.42 µM.
Consider `CO[C@H]1CC(O[C@@H]2/C(C)=C/C[C@@H]3C[C@@H](C[C@]4(CC[C@H](C)[C@@H](C5CCCCC5)O4)O3)OC(=O)[C@@H]3C=C(C)/C(=N/O)[C@H]4OC/C(=C\C=C\[C@@H]2C)[C@]43O)O[C@@H](C)C1O` (stereo not given in full), for which the GI50 in assay [1] was 0.966 µM; in assay [2], 1.13 µM; in [3] it was 0.935 µM; in [4], 0.864 µM; in assay [5], 0.651 µM; in assay [6], 0.994 µM. For the same molecule, the GI50 in assay [7] is 1.12 µM; in assay [8] it was 1.18 µM; in assay [9] it was 1.05 µM; in assay [10] it was 0.777 µM. For the same molecule, the TGI is 2.05 µM in assay [1]; 2.71 µM in assay [2]; 2.66 µM in [3]; 1.62 µM in assay [4]; 1.28 µM in assay [5]; 2.01 µM in [6]. The TGI in assay [7] was found to be 3.13 µM; in assay [8], 2.68 µM; in assay [9], 2.41 µM; in [10], 1.5 µM.
As to `Cc1cc2c(-c3nc4ccccn4c3N)c(O)c(O)cc2c(O)c1-c1c(C)cc2c(-c3nc4ccccn4c3N)c(O)c(O)cc2c1O`, the GI50 was 0.979 µM in assay [1]; 1.51 µM in [2]; 0.688 µM in assay [3]; 1.36 µM in assay [4]; 0.582 µM in assay [5]; 1.63 µM in assay [6]. The GI50 was 0.625 µM in assay [7], 0.961 µM in assay [8], 0.716 µM in assay [9] and 0.988 µM in assay [10]. The TGI in [1], in assay [2], in assay [3], in [4], in assay [5] and in assay [6] was over 25 µM throughout. The TGI is 4.88 µM in [7], 23.4 µM in [8], over 25 µM in [9] and over 25 µM in assay [10].
For `CC(=O)N1N=C(c2ccc(Nc3nc(Nc4ccc(F)cc4)nc(Nc4ccc(F)cc4)n3)cc2)CC1c1ccc(N(C)C)cc1` (stereo not given), the GI50 in assay [1] was 3.79 µM; in assay [2] it was 7.02 µM; in assay [3], 4.58 µM; in assay [4], 5.23 µM; in [5] it was 12.2 µM; in assay [6], 6.15 µM. Moreover, the GI50 in assay [7] is 4.81 µM; in assay [8] it was 3.61 µM; in assay [9], 3 µM; in [10], 3.8 µM. In addition, the TGI amounted to 28.9 µM in assay [1]; 39.2 µM in assay [2]; 26.8 µM in assay [3]; 20.3 µM in assay [4]; 24.6 µM in assay [5]; 18.7 µM in [6]. The TGI in assay [7] stood at 30 µM; in assay [8], 16.5 µM; in assay [9], 11.1 µM; in assay [10], 18.8 µM.
`C#CCN(c1ccc(C(=O)N[C@@H](CCC(=O)N[C@H](CCC(=O)O)C(=O)O)C(=O)O)cc1)C1CCc2cc3nc(CO)[nH]c(=O)c3cc21` (stereo not given in full): the GI50 was over 100 µM in assay [1]; over 100 µM in [2]; 5.41 µM in [3]; over 100 µM in assay [4]; 5.12 µM in assay [5]; 5.64 µM in assay [6]. The GI50 in [7] was over 100 µM; in [8], over 100 µM; in [9], over 74.5 µM; in [10] it was over 44.5 µM. In addition, the TGI in assay [1], in [2], in assay [3], in assay [4], in [5] and in [6] was over 100 µM each time. In addition, the TGI in assay [7], in [8], in assay [9] and in assay [10] was over 100 µM throughout.
`CCCCCCCCCC[C@H](O)[C@H](O)CC[C@@H](O)[C@H]1CC[C@@H]([C@H]2CC[C@H](CCCCCCC[C@@H](O)CC3=C[C@H](C)OC3=O)O2)O1`: the TGI is 5.64 µM in [1]; over 100 µM in [2]; over 100 µM in [3]; 3.42 µM and 30.9 µM in [4]; 3.5 µM and 24.2 µM in [5]; over 100 µM in assay [6]. Further, the TGI is 62.1 µM in assay [7] and over 100 µM in [10]. Also, the GI50 was 36.3 µM in [2]; 20.7 µM in assay [3]; 11.8 µM in assay [4]; 2.9 µM in [5]; 27 µM in assay [8]; 28.7 µM in assay [9]. Further, the GI50 in assay [10] is 47.2 µM.
Take `CCN(Cc1cccc(Cl)c1)c1ccc(CO)c(Cl)c1`: the GI50 was 3.61 µM in assay [1]; 0.0588 µM in assay [2]; 2.47 µM in assay [3]; 0.835 µM in assay [4]; 9.11 µM in assay [5]; 11.9 µM in [6]. Besides, the GI50 in assay [7] is 12.8 µM; in assay [8], 3.86 µM; in [9] it was 13.5 µM; in assay [10], 1.56 µM. The TGI in assay [1] turned out to be 14.6 µM; in [2], 0.321 µM; in [3], 17 µM; in assay [4], 5.29 µM; in assay [5], 22.3 µM; in assay [6] it was 25.1 µM. Further, the TGI in assay [7] is 27.1 µM; in assay [8], 20.8 µM; in [9], 27.5 µM; in assay [10], 18.1 µM.
